Test results published in US5506354A, “Imidazolylpiperazinyl steroids” (The Upjohn Company, priority 1992, dated 1996).
Counter-ions that a name gives are not always drawn.

Assays:
[1] = test system: conjugated diene formation; assay: Conjugated Diene Formation Assay (rat brain synaptosomes); assay type: biochemical; settings: 100 μM (or less) of drug; active = inhibition by 50% or more
Source text: The formation of conjugated dienes as assayed by Braughler, J. Neurochem., 44, 1282 (1985), Bucher, Fund. Applied Tox., 3, 222 (1983) and Tein, Arch. Biochem. Biophy., 216, 142 (1982) is a standard pharmacological laboratory procedure useful for identifying compounds which inhibit lipid peroxidation. Since lipid peroxidation is involved in the pathophysiology of central nervous system trauma, compounds which inhibit conjugated diene formation are useful in treating the conditions listed below.
44, 1282 (1985). Synaptosomal suspension (10 μl) is added to 1 ml of physiological (normal) saline containing 1% Lubrol PX (Sigma Chemical Co. St. Louis, Mo.), 100 μM hydrogen peroxide and 100 μM (or less) of the drug to be tested prepared in either absolute ethanol or water depending upon solubility. The reaction is started by the rapid addition of 200 μM ferrous ammonium sulfate prepared in argon-purged water. The sample is rapidly mixed and the change in absorbence at 232 nm is followed in a Gifford Response Spectrophotometer equipped with a rapid sampler. Due to the rapidity of the reaction, rapid addition of the iron, rapid mixing and sampling are obligatory to the accuracy of the assay. For best results absorbence readings of one/sec should be started within 5 sec following the addition of iron. The initial linear rate of absorbence change during the first 30 sec of reaction are compared with the rate of a reaction containing all reagents except synaptosomes. The difference in rates is the rate of conjugated diene formation. Rates with drug are compared to rates obtained in the absence of drug and the % inhibition is calculated. A compound that inhibits conjugated diene formation by 50% or more is considered to be "active".

arachidonic acid = assay: Arachidonic Acid Antagonism Assay (AAAA), LD50 of sodium arachidonate; assay type: in vivo, Charles River male CF-1 mice; settings: test compound IV 15 min before sodium arachidonate; LD50 outside 95% confidence interval of control
Protocol: Since these metabolites contribute to the pathological problems associated with stroke, spinal trauma and head injury, compounds which antagonize arachidonic acid are useful in treating stroke, spinal trauma and head injury.
While not necessary to determine arachidonic acid antagonism, the above assay has been modified as follows: Charles River male CF-1 mice weighing 18-22 g are treated IV with the test compound dissolved in 1.0% Tween-80 and 0.1% hydrochloric acid in distilled water, 0.2 ml total volume. Fifteen minutes later sodium arachidonate (90% pure) in physiological (normal) saline is injected into the tail vein. The LD50 is measured using the Spearman-Karber method with a log dose interval of 0.05 (N=6). Compounds which elevate the LD50 outside of the 95% confidence interval of the control LD50 are considered to be "active".

mucous secretion = assay: Inhibition of mucous secretion assay of Johnson; settings: for inhibition of mucous secretion (activity in words): induced mucous secretions; for preferred mucous inhibitors by the test results (in words): test results disclose
Source text: According to this procedure compounds which inhibit or block enhancement of induced mucous secretions when tested are considered to be "active".

angiogenesis = assay: Chick embryo assay of Folkman (inhibition of angiogenesis / tumor growth); assay type: in vivo; settings: 50 μg/10 μl in the presence of heparin
Protocol: According to this procedure compounds which are considered to be "active" (i.e. antiangiogenic) give an avascular zone of 4 mm or greater in some embryos when tested at 50 μg/10 μl in the presence of 50 μg/10μ of heparin.

MDA formation = assay: Malonyldialdehyde (MDA) Formation Assay (rat brain synaptosomes); assay type: biochemical; settings: 10 min at 37°, pH 7.0; active = 50% or more at 200 μM or less
Protocol: Since lipid peroxidation is involved in the pathophysiology of center nervous system trauma, compounds which inhibit MDA formation are useful in treating the conditions listed below.
While not necessary to determine MDA formation, the above assays have been modified as follows: rat brain synaptosomes are prepared as described in the Example about the conjugated diene assay, except that the final wash of the synaptosomes and final suspension are in physiological (normal) saline in which the pH has been adjusted to 7.0. The synaptosomes are incubated for 10 min at 37° in physiological (normal) saline pH 7.0 (total volume=100 ul) containing; 10 ul synaptosomal suspension, 10% DMSO plus or minus drug, 150 uM Fe^+++ and 50 uM Fe++. The incubation is started by the rapid addition of iron to the otherwise complete reaction. The iron solutions are prepared fresh as ferric chloride and ferrous ammonium sulfate in argon-purged water. Following the 10 min incubation, the reaction is stopped by the addition of 500 ul ice-cold 12% trichloroacetic acid prepared in 0.5N hydrochloric acid. Water (300 ul) is then added along with 100 ul of freshly prepared thiobarbituric acid (3.3% in 0.5N sodium hydroxide) and 10 ul of 5 mM desferrioxamine. The sample is then heated in a boiling water bath for 20 minutes. The samples are cooled and centrifuged for 15 minutes at 1500×g and the absorbence of the supernatant fraction is read at 532 nm. The % inhibition of MDA formation is calculated by dividing the absorbance of sample containing drug by the absorbence of samples incubated without drug. Reaction blanks are samples incubated in the absence of iron. A compound that inhibits MDA formation by 50% or more at a concentration of 200 μM or less is considered "active".

interleukin-1 = assay: Inhibition of interleukin-1 induced T cell proliferation; assay type: cell-based; settings: active = greater than 30% at 10^-6 M
Source text: The inhibition of interleukin-1 induced T cell proliferation assay, Proc. Nat. […] Since people with arthritis make excess interleukin 1, compounds which inhibit the activity of interleukin 1 are useful in the treatment of arthritis. According to this procedure compounds which inhibit the activity of interleukin 1 greater that 30% at 10^-6 M are considered to be "active".

mouse head injury = assay: in vivo mouse head injury procedure of Hall (1 hr neurological recovery, grip test); settings: statistically significant (p<0.05)

| Structure (SMILES) | inhibition of conjugated diene formation (activity in words) [1] | arachidonic acid antagonism (activity in words) (arachidonic acid) | inhibition of mucous secretion (activity in words) (mucous secretion) | preferred mucous inhibitors by the test results (in words) (mucous secretion) | % of Embryos with 4 mm or Greater Avascular Zone (angiogenesis) [%] | inhibition of MDA formation (activity in words) (MDA formation) | inhibition of interleukin 1 (activity in words) (interleukin-1) | % Increase in 1 hr Post-Injury Grip Test Scores After 3 mg/kg (mouse head injury) [%] | inhibition of angiogenesis (activity in words) (angiogenesis) |
| --- | --- | --- | --- | --- | --- | --- | --- | --- | --- |
| CS(=O)(=O)O.C[C@]12CCC(=O)C=C1CC[C@@H]1C2=CC[C@@]2(C)[C@H]1CC[C@]2(O)C(=O)CN1CCN(c2ccccn2)CC1 [Example 2, 17α-Hydroxy-21-[4-(2-pyridinyl)-1-piperazinyl]pregna-4,9(11)-diene-3,20-dione methanesulfonate] | demonstrate such activity | demonstrate arachidonic acid antagonism | demonstrate such activity | preferred mucous inhibitors | 85 | – | – | – | – |
| CCN(CC)c1cc(N2CCN(CC(=O)[C@@]3(O)CC[C@H]4[C@@H]5CCC6=CC(=O)CC[C@]6(C)C5=CC[C@@]43C)CC2)nc(N)n1 [Example 4, 21-[4-[2-Amino-6-(diethylamino)-4-pyrimidinyl]-1-piperazinyl]-17α-hydroxypregna-4,9(11)-diene-3,20-dione] | demonstrate such activity | demonstrate arachidonic acid antagonism | demonstrate such activity | – | – | – | – | – | – |
| C[C@H]1C[C@@H]2C(=CC[C@@]3(C)[C@H]2CC[C@]3(O)C(=O)CN2CCN(c3cc(N4CCCC4)nc(N4CCCC4)n3)CC2)[C@@]2(C)C=CC(=O)C=C12 [Example 47, 17α-hydroxy-6α-methyl-21-[4-[2,6-bis(1-pyrrolidinyl)-4-pyrimidinyl]-1-piperazinyl]pregna-1,4,9(11)-triene-3,20-dione (E)-2-butenodioate salt] | demonstrate such activity | demonstrate arachidonic acid antagonism | – | – | – | demonstrate such activity | demonstrate inhibition of interleukin 1 | – | – |
| CCN(CC)c1cc(N2CCN(CC(=O)[C@H]3CC[C@H]4[C@@H]5CCC6=CC(=O)CC[C@]6(C)[C@H]5[C@H](O)C[C@]34C)CC2)nc(N(CC)CC)n1.Cl.Cl [Example 69, 21-[4-[2,6-bis(diethylamino)-4-pyrimidinyl]-1-piperazinyl]-11α-hydroxypregn-4-ene-3,20-dione dihydrochloride] | – | – | – | – | – | – | – | 199.7 | – |
| CCN(CC)c1cc(N2CCN(CC(=O)[C@@]3(O)CC[C@H]4[C@@H]5CCC6=CC(=O)CC[C@]6(C)[C@H]5[C@H](O)C[C@@]43C)CC2)nc(N(CC)CC)n1.Cl.Cl [Example 70, 21-[4-[2,6-bis(diethylamino)4-pyrimidinyl]-1-piperazinyl]-11α,17α-dihydroxypregn-4-ene-3,20-dione dihydrochloride] | – | – | – | – | – | – | – | 148.3 | – |
| CS(=O)(=O)O.CS(=O)(=O)O.C[C@@H]1C[C@H]2[C@@H]3CCC4=CC(=O)C=C[C@]4(C)C3=CC[C@]2(C)[C@H]1C(=O)CN1CCN(c2cc(N3CCCC3)nc(N3CCCC3)n2)CC1 [Example 83, 16α-Methyl-21-[4-(2,6-bis(1-pyrrolidinyl)-4-pyrimidinyl]-1-piperazinyl]pregna-1,4,9(11)-triene-3,20-dione dimethane-sulfonate] | demonstrate such activity | – | demonstrate such activity | preferred mucous inhibitors | – | demonstrate such activity | demonstrate inhibition of interleukin 1 | – | demonstrate inhibition of angiogenesis |
| C[C@]12CCC(=O)C=C1CC[C@@H]1C2=CC[C@@]2(C)[C@H]1CC[C@]2(O)C(=O)CN1CCN(c2cc(N3CCOCC3)nc(N3CCOCC3)n2)CC1 [Example 105, 21-[4-(2,6-Bis(4-morpholino)-4-pyrimidinyl)-1-piperazinyl]-17α-hydroxypregna-4,9(11)-diene-3,20-dione dihydrochloride, hydrate] | – | – | demonstrate such activity | preferred mucous inhibitors | – | – | demonstrate inhibition of interleukin 1 | – | demonstrate inhibition of angiogenesis |
